In ChEMBL document CHEMBL1159123, “Molecular design of N-linked tetravalent glycosides bearing N-acetylglucosamine, N,N'-diacetylchitobiose and N-acetyllactosamine: Analysis of cross-linking activities with WGA and ECA lectins” (Bioorg Med Chem, 2010):
Calls of active or inactive are those of the source. No cut-off for these calls is given here.

Columns and labels:
[1] = system: Triticum aestivum; assay: Binding affinity to wheat-germ agglutinin assessed as precipiting bands by double diffusion test
[2] = system: Triticum aestivum; assay: Binding affinity to wheat-germ agglutinin assessed as increase in response units by surface plasmon resonance
[3] = Inhibition of wheat-germ agglutinin-mediated hemagglutinination of rabbit erythrocytes; parameters: species or system Triticum aestivum
[4] = system: Erythrina variegata; assay: Binding affinity to Erythrina variegata agglutinin assessed as precipitation by UV detection based precipitation analysis
[5] = Inhibition of Erythrina variegata agglutinin-mediated hemagglutinination of rabbit erythrocytes
[6] = system: Triticum aestivum; assay: Binding affinity to wheat-germ agglutinin assessed as precipitation by UV detection based precipitation analysis
[7] = system: Erythrina variegata; assay: Binding affinity to Erythrina variegata agglutinin assessed as precipiting bands by double diffusion test

| Structure (SMILES) | Activity [1] | Activity [2] | IC50 [3] [µM] | Activity [4] | IC50 [5] [µM] | Activity [6] | Activity [7] |
| --- | --- | --- | --- | --- | --- | --- | --- |
| CC(=O)N[C@@H]1[C@@H](O)[C@H](O)[C@@H](CO)O[C@H]1NC(=O)CN(CCOCCOCCN(CC(=O)N[C@@H]1O[C@H](CO)[C@@H](O)[C@H](O)[C@H]1NC(C)=O)CC(=O)N[C@@H]1O[C@H](CO)[C@@H](O)[C@H](O)[C@H]1NC(C)=O)CC(=O)N[C@@H]1O[C@H](CO)[C@@H](O)[C@H](O)[C@H]1NC(C)=O | inactive | Dose-dependent effect | > 4000 | inactive |  |  |  |
| CC(=O)N[C@@H]1[C@@H](O)[C@H](O[C@@H]2O[C@H](CO)[C@H](O)[C@H](O)[C@H]2O)[C@@H](CO)O[C@H]1NC(=O)CN(CCOCCOCCN(CC(=O)N[C@@H]1O[C@H](CO)[C@@H](O[C@@H]2O[C@H](CO)[C@H](O)[C@H](O)[C@H]2O)[C@H](O)[C@H]1NC(C)=O)CC(=O)N[C@@H]1O[C@H](CO)[C@@H](O[C@@H]2O[C@H](CO)[C@H](O)[C@H](O)[C@H]2O)[C@H](O)[C@H]1NC(C)=O)CC(=O)N[C@@H]1O[C@H](CO)[C@@H](O[C@@H]2O[C@H](CO)[C@H](O)[C@H](O)[C@H]2O)[C@H](O)[C@H]1NC(C)=O | inactive |  | > 4000 | Active | 1.2 | inactive | Active |
| CC(=O)N[C@@H]1[C@@H](O)[C@H](O[C@@H]2O[C@H](CO)[C@H](O)[C@H](O)[C@H]2O)[C@@H](CO)O[C@H]1O |  |  |  |  | 94 |  |  |
| CC(=O)N[C@H]1[C@H](O[C@H]2[C@H](O)[C@@H](NC(C)=O)C(O)O[C@@H]2CO)O[C@H](CO)[C@@H](O)[C@@H]1O (stereo not given in full) |  |  | 750 |  |  |  |  |
| CC(=O)N[C@@H]1[C@@H](O)[C@H](O[C@@H]2O[C@H](CO)[C@@H](O)[C@H](O)[C@H]2NC(C)=O)[C@@H](CO)O[C@H]1NC(=O)CCCCCNC(=O)CN(CCOCCOCCN(CC(=O)NCCCCCC(=O)N[C@@H]1O[C@H](CO)[C@@H](O[C@@H]2O[C@H](CO)[C@@H](O)[C@H](O)[C@H]2NC(C)=O)[C@H](O)[C@H]1NC(C)=O)CC(=O)NCCCCCC(=O)N[C@@H]1O[C@H](CO)[C@@H](O[C@@H]2O[C@H](CO)[C@@H](O)[C@H](O)[C@H]2NC(C)=O)[C@H](O)[C@H]1NC(C)=O)CC(=O)NCCCCCC(=O)N[C@@H]1O[C@H](CO)[C@@H](O[C@@H]2O[C@H](CO)[C@@H](O)[C@H](O)[C@H]2NC(C)=O)[C@H](O)[C@H]1NC(C)=O | Active | Dose-dependent effect | 0.18 | inactive |  |  |  |
| CC(=O)N[C@@H]1[C@@H](O)[C@H](O[C@@H]2O[C@H](CO)[C@H](O)[C@H](O)[C@H]2O)[C@@H](CO)O[C@H]1NC(=O)CCCCCC(=O)N[C@@H]1O[C@H](CO)[C@@H](O[C@@H]2O[C@H](CO)[C@H](O)[C@H](O)[C@H]2O)[C@H](O)[C@H]1NC(C)=O |  |  |  |  | 47 |  |  |
| CC(=O)N[C@@H]1[C@@H](O)[C@H](O)[C@@H](CO)O[C@H]1NC(=O)CCCCCNC(=O)CN(CCOCCOCCN(CC(=O)NCCCCCC(=O)N[C@@H]1O[C@H](CO)[C@@H](O)[C@H](O)[C@H]1NC(C)=O)CC(=O)NCCCCCC(=O)N[C@@H]1O[C@H](CO)[C@@H](O)[C@H](O)[C@H]1NC(C)=O)CC(=O)NCCCCCC(=O)N[C@@H]1O[C@H](CO)[C@@H](O)[C@H](O)[C@H]1NC(C)=O | Active | Dose-dependent effect | 46.9 | inactive |  |  |  |
| CC(=O)N[C@@H]1[C@@H](O)[C@H](O[C@@H]2O[C@H](CO)[C@@H](O)[C@H](O)[C@H]2NC(C)=O)[C@@H](CO)O[C@H]1NC(=O)CN(CCOCCOCCN(CC(=O)N[C@@H]1O[C@H](CO)[C@@H](O[C@@H]2O[C@H](CO)[C@@H](O)[C@H](O)[C@H]2NC(C)=O)[C@H](O)[C@H]1NC(C)=O)CC(=O)N[C@@H]1O[C@H](CO)[C@@H](O[C@@H]2O[C@H](CO)[C@@H](O)[C@H](O)[C@H]2NC(C)=O)[C@H](O)[C@H]1NC(C)=O)CC(=O)N[C@@H]1O[C@H](CO)[C@@H](O[C@@H]2O[C@H](CO)[C@@H](O)[C@H](O)[C@H]2NC(C)=O)[C@H](O)[C@H]1NC(C)=O | Active | Dose-dependent effect | 5.86 | inactive |  |  |  |
| CC(=O)N[C@@H]1[C@@H](O)[C@H](O[C@@H]2O[C@H](CO)[C@H](O)[C@H](O)[C@H]2O)[C@@H](CO)O[C@H]1NC(=O)CCCCCNC(=O)CN(CCOCCOCCN(CC(=O)NCCCCCC(=O)N[C@@H]1O[C@H](CO)[C@@H](O[C@@H]2O[C@H](CO)[C@H](O)[C@H](O)[C@H]2O)[C@H](O)[C@H]1NC(C)=O)CC(=O)NCCCCCC(=O)N[C@@H]1O[C@H](CO)[C@@H](O[C@@H]2O[C@H](CO)[C@H](O)[C@H](O)[C@H]2O)[C@H](O)[C@H]1NC(C)=O)CC(=O)NCCCCCC(=O)N[C@@H]1O[C@H](CO)[C@@H](O[C@@H]2O[C@H](CO)[C@H](O)[C@H](O)[C@H]2O)[C@H](O)[C@H]1NC(C)=O | inactive |  |  | Active | 5.9 | inactive | Active |
